Several values for one entry are separate records, joined by “and”; a condition that tells them apart may be missing. Identical values can stand only once. Like-named read-outs stand apart in the source and are kept apart here.
How the values were obtained:
[1] = biological target: T1, xanthine oxidase (XO) (Bos taurus, UniProt P80457); experiment: XO assay with xanthine as substrate (uric acid formation, HPLC-UV); type: biochemical, bovine; details: for IC50: XO 0.0003 U mL^−1, 8 min, 37 °C, pH 7.5, read-out: IC50, xanthine oxidation; for IC50 / XO-catalyzed uric acid formation / decrease in uric acid production (inhibition of XO-catalyzed xanthine oxidation) / inhibition at 20 µM: xanthine 5 μmol L^−1; for XO-catalyzed uric acid formation: inhibitor 5 μmol L^−1; for α = IC50 of flavonoid/IC50 of positive control, xanthine oxidation: relative to APU; for decrease in uric acid production (inhibition of XO-catalyzed xanthine oxidation) / inhibition at 20 µM: inhibitor 20 μmol L^−1; for inhibition at 20 µM: read-out: decrease in uric acid production (inhibition of XO-catalyzed xanthine oxidation);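 on all read-outs here: incubations in 0.05 mol L^−1 sodium phosphate buffer, with uric acid and remaining xanthine both quantified by HPLC-UV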
T1 construct: XO (from bovine milk); purchased Merck (Darmstadt, Germany); host or cells: bovine milk (natural source)

[2] = biological target: T1, xanthine oxidase (XO); experiment: XO assay with 6MP as substrate (6-thiouric acid formation, HPLC-UV); type: biochemical, bovine; details: for IC50: XO 0.01 U mL^−1, 25 min, 37 °C, pH 7.5, read-out: IC50, 6MP oxidation; for fold stronger inhibition than APU, 6MP assay: based on IC50 values; for XO-catalyzed 6-thiouric acid formation: inhibitor 5 μmol L^−1; for α = IC50 of flavonoid/IC50 of positive control, 6MP oxidation: relative to APU; for lower decrease in metabolite formation in the 6MP assay than in the xanthine assay: difference between assays; for IC50(6MP)/IC50(xanthine): ratio of IC50 values with the two substrates;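 on all read-outs here: incubation in 0.05 mol L^−1 sodium phosphate buffer, with 6MP and 6-thiouric acid quantified by HPLC-UV and conversion taken as the product share of substrate plus product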
[3] = biological target: T1, xanthine oxidase (XO); experiment: Reversibility of XO inhibition (preincubation, increasing xanthine concentrations); type: biochemical, bovine; details: SBS 5 μmol L^−1, DSC and DSCS 0.5 μmol L^−1; 10 min preincubation; xanthine 5, 25, 50 μmol L^−1
Protocol: After 8 min incubation (700 rpm, 37 °C), the reaction was stopped, and the samples were treated in the same way as described in the previous paragraph.

[4] = biological target: T1, xanthine oxidase (XO); experiment: Fluorescence quenching studies of polyphenol-XO complexes; type: binding, bovine; details: for Log K SV ± SEM (Stern–Volmer quenching constant): K SV in L mol^−1
Protocol: Increasing concentrations of polyphenols (0, 2, 4, 6, 8 and 10 μmol L^−1) were added to a standard amount of XO (0.4 μmol L^−1) in sodium phosphate buffer (0.05 mol L^−1, pH 7.5). Then, the emission spectra of XO were recorded using 280 nm excitation wavelength. The inner‐filter effects of silymarin components/metabolites were corrected based on the following equation[39], [41], [42]: (1) Icor=Iobs×e^Aex+Aem/2 where I cor is the corrected and I obs is the observed emission intensity; while A ex and A em are the absorbance of polyphenols at the excitation and emission wavelengths applied, respectively. Polyphenol‐induced fluorescence quenching was evaluated at 335 nm. Stern–Volmer quenching constants (K SV; unit: L mol^−1) of polyphenol–XO complexes were determined using the graphical application of the Stern–Volmer equation[43], [44], [45]: (2) I0/I=1+KSV×Q where I 0 and I are the emission signals of XO without and with the polyphenols tested, respectively, and [Q] denotes the molar concentration (mol L^−1) of the quencher (polyphenols). The binding constants (K; unit: L mol^−1) of polyphenol–XO complexes were calculated applying the modified Stern–Volmer equation[43], [44], [45]: (3) I0/I0−I=1/fa×K×1/Q+1/fa where I 0, I and [Q] have the same meaning as in Eqn (2), and f a is the fraction of the accessible fluorophore.

[5] = λex 280 nm, λem 335 nm, XO 0.4 μmol L^−1, pH 7.5
[6] = association constant K in L mol^−1, λex 280 nm, λem 335 nm, XO 0.4 μmol L^−1, pH 7.5
[7] = inhibitor 20 μmol L^−1, 6MP 5 μmol L^−1
[8] = association constant K in L mol^−1, λex 280 nm, λem 335 nm, XO 0.4 μmol L^−1, pH 7.5, read-out: Log K ± SEM (binding constant, modified Stern–Volmer) (converted)

T1 sequence (P80457 whole entry): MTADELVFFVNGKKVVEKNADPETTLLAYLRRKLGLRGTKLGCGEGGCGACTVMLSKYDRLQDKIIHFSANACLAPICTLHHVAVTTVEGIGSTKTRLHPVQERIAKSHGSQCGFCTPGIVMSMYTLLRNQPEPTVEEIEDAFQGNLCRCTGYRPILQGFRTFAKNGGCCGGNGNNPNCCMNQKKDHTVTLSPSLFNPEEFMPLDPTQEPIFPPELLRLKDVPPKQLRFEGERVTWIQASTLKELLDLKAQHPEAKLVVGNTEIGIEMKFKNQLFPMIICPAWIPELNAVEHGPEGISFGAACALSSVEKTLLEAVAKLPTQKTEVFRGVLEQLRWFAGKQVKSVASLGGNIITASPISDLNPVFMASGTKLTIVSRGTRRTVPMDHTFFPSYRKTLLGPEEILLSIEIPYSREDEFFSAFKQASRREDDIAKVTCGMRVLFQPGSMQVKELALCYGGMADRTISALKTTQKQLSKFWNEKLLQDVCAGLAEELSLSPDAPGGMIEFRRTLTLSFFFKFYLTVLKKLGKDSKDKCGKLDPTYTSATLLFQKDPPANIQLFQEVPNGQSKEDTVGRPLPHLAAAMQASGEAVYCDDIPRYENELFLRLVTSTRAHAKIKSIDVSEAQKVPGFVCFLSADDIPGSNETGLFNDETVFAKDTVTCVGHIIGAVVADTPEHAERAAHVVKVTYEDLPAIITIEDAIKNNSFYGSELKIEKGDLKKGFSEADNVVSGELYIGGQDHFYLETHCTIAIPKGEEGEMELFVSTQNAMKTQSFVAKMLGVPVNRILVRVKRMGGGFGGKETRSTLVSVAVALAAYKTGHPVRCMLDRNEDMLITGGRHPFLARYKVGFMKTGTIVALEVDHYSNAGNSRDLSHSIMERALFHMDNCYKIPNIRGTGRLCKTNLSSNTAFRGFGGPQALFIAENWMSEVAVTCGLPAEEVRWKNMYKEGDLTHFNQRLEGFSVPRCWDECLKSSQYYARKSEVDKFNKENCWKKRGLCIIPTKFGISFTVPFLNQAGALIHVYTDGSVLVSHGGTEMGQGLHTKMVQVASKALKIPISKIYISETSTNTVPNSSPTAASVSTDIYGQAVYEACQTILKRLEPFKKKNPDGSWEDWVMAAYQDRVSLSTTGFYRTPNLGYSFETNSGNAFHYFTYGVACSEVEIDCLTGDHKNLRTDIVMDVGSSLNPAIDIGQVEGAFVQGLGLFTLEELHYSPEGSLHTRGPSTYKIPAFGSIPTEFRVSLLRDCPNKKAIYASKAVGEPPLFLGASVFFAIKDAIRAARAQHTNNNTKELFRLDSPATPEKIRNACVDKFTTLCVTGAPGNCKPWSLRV

| Compound | IC50 [1] | α = IC50 of flavonoid/IC50 of positive control, xanthine oxidation [1] | IC50 ([2]; 6MP 5 μmol L^−1) | α = IC50 of flavonoid/IC50 of positive control, 6MP oxidation [2] | Log K SV ± SEM (Stern–Volmer quenching constant) [4, 5] | Log K ± SEM (binding constant, modified Stern–Volmer) [4, 6] | decrease in uric acid production (inhibition of XO-catalyzed xanthine oxidation) [1] | decrease in 6-thiouric acid formation (inhibition of XO-catalyzed 6MP oxidation) [2, 7] | IC50(6MP)/IC50(xanthine) [2] | other results |
| --- | --- | --- | --- | --- | --- | --- | --- | --- | --- | --- |
| COc1cc(C2Oc3c(O)cc(-c4oc5cc(O)cc(O)c5c(=O)c4O)cc3C2CO)ccc1OS(=O)(=O)O (mixture of isomers) [DSCS, 2,3‐dehydrosilychristin‐19‐O‐sulfate] | 0.08 µM | 0.31 | 0.21 µM | 0.05 | 4.68 ± 0.01 | 5.12 ± 0.03 |  |  |  | XO-catalyzed uric acid formation [1]: almost completely abolished; fold stronger inhibition than APU, 6MP assay [2]: approximately 20 fold; XO-catalyzed 6-thiouric acid formation ([2]; 6MP 5 μmol L^−1): almost completely abolished; reversibility of the inhibitory action on XO [3]: reversible; K (binding constant) of polyphenol–XO complex ([4]; fluorescence quenching): above 10^5 L mol^−1 |
| COc1cc(C2Oc3c(O)cc(C4Oc5cc(O)cc(O)c5C(=O)C4O)cc3C2CO)ccc1OS(=O)(=O)O (mixture of isomers) [SCS, silychristin‐19‐O‐sulfate] |  |  |  |  | 4.37 ± 0.03 | 4.66 ± 0.02 | weaker effect compared to its parent compound | weak to moderate inhibitors |  | lower decrease in metabolite formation in the 6MP assay than in the xanthine assay ([2]; inhibitor 20 μmol L^−1): ~20% |
| Oc1ncnc2[nH]ncc12 [APU, allopurinol, reference compound] |  |  |  |  |  |  | almost completely abolished metabolite formation | marked decreases |  |  |
| Oc1cc(O)c2c(c1)OC(c1ccc(O)c(O)c1)C(O)C2 (stereo not shown) [CAT, catechin] |  |  |  |  |  |  | did not cause significant changes |  |  |  |
| COc1cc([C@@H]2Oc3c(O)cc(-c4oc5cc(O)cc(O)c5c(=O)c4O)cc3[C@H]2CO)ccc1O [DSC, 3,5,7‐trihydroxy‐2‐[(2R,3S)‐7‐hydroxy‐2‐(4‐hydroxy‐3‐methoxyphenyl)‐3‐(hydroxymethyl)‐2,3‐dihydro‐1‐benzofuran‐5‐yl]chromen‐4‐one] | 0.09 µM | 0.35 | 0.29 µM | 0.07 | 4.68 ± 0.01 |  |  | marked decreases | 3.2 | fold stronger inhibitor of xanthine oxidation compared to SC ([1]; based on IC50 values): 50 fold; XO-catalyzed uric acid formation [1]: almost completely abolished; inhibition at 20 µM [1]: 96%; fold stronger inhibition than APU, 6MP assay [2]: ~15 fold; XO-catalyzed 6-thiouric acid formation ([2]; 6MP 5 μmol L^−1): almost completely abolished; inhibition at 20 µM ([2]; inhibitor 20 μmol L^−1, 6MP 5 μmol L^−1, read-out: decrease in 6-thiouric acid formation (inhibition of XO-catalyzed 6MP oxidation)): > 80%; reversibility of the inhibitory action on XO [3]: reversible; Kd [4, 8]: 7.76 µM; Kd ([4]; fluorescence quenching, read-out: K (binding constant) of polyphenol–XO complex): < 10 µM |
| O=C(O[C@@H]1Cc2c(O)cc(O)cc2O[C@@H]1c1ccc(O)c(O)c1)c1cc(O)c(O)c(O)c1 [ECG, epicatechin gallate] |  |  |  |  |  |  |  | weak to moderate inhibitors |  | inhibition at 20 µM [1]: ~50% |
| Oc1cc(O)c2c(c1)O[C@H](c1ccc(O)c(O)c1)[C@H](O)C2 [ECT, epicatechin] |  |  |  |  |  |  | did not cause significant changes |  |  |  |
| Oc1cc(O)c2c(c1)O[C@H](c1cc(O)c(O)c(O)c1)[C@H](O)C2 [EGC, epigallocatechin] |  |  |  |  |  |  | did not cause significant changes | only slight inhibitory action |  |  |
| O=C(O[C@@H]1Cc2c(O)cc(O)cc2O[C@@H]1c1cc(O)c(O)c(O)c1)c1cc(O)c(O)c(O)c1 [EGCG, epigallocatechin gallate] |  |  |  |  |  |  | approximately 50% | weak to moderate inhibitors |  |  |
| COc1cc([C@H]2Oc3ccc([C@H]4Oc5cc(O)cc(O)c5C(=O)[C@@H]4O)cc3O[C@@H]2CO)ccc1O [ISA, isosilybin A] |  |  |  |  | 4.46 ± 0.01 |  |  | weak to moderate inhibitors |  | inhibition at 20 µM [1]: 64%; lower decrease in metabolite formation in the 6MP assay than in the xanthine assay ([2]; inhibitor 20 μmol L^−1): ~20%; Kd [4, 8]: 18.2 µM |
| COc1cc([C@H]2Oc3cc([C@H]4Oc5cc(O)cc(O)c5C(=O)[C@@H]4O)ccc3O[C@@H]2CO)ccc1O [SA, silybin A] |  |  |  |  | 4.45 ± 0.04 |  | only weak inhibitors | weak to moderate inhibitors |  | Kd [4, 8]: 19.5 µM |
| COc1cc([C@H]2Oc3cc([C@H]4Oc5cc(O)cc(O)c5C(=O)[C@@H]4O)ccc3O[C@@H]2CO)ccc1OS(=O)(=O)O [SAS, silybin A‐20‐O‐sulfate] | 1.4 µM and 1.43 µM | 5.50 | 2.91 µM | 0.69 | 4.58 ± 0.03 | 4.99 ± 0.05 | more than 80% |  | 2.0 |  |
| COc1cc([C@@H]2Oc3cc([C@H]4Oc5cc(O)cc(O)c5C(=O)[C@@H]4O)ccc3O[C@H]2CO)ccc1O [SB, (2R,3R)‐3,5,7‐trihydroxy‐2‐[(2S,3S)‐3‐(4‐hydroxy‐3‐methoxyphenyl)‐2‐(hydroxymethyl)‐2,3‐dihydro‐1,4‐benzodioxin‐6‐yl]‐2,3‐dihydrochromen‐4‐one] |  |  |  |  | 4.49 ± 0.01 |  | only weak inhibitors | weak to moderate inhibitors |  | Kd [4, 8]: 13.5 µM |
| COc1cc([C@@H]2Oc3cc([C@H]4Oc5cc(O)cc(O)c5C(=O)[C@@H]4O)ccc3O[C@H]2CO)ccc1OS(=O)(=O)O [SBS, silybin B‐20‐O‐sulfate] | 0.24 µM | 0.92 | 0.57 µM | 0.14 | 4.63 ± 0.01 | 5.05 ± 0.02 | more than 80% |  | 2.4 | XO-catalyzed uric acid formation [1]: almost completely abolished; fold stronger inhibition than APU, 6MP assay [2]: ~7 fold; XO-catalyzed 6-thiouric acid formation ([2]; 6MP 5 μmol L^−1): almost completely abolished; reversibility of the inhibitory action on XO [3]: reversible; K (binding constant) of polyphenol–XO complex ([4]; fluorescence quenching): above 10^5 L mol^−1 |
| COc1cc([C@@H]2Oc3c(O)cc([C@H]4Oc5cc(O)cc(O)c5C(=O)[C@@H]4O)cc3[C@H]2CO)ccc1O [SC, silychristin] | 4.5 µM | 17.3 | 10 µM | 2.38 | 4.43 ± 0.01 | 4.81 ± 0.01 |  |  | 2.2 |  |
| isosilybin A‐20‐O‐sulfate [ISAS] | 0.68 µM | 2.62 | 2.86 µM | 0.68 | 4.49 ± 0.01 | 4.90 ± 0.04 | more than 80% |  | 4.2 |  |
